Patent publication US20160019374A1, “METHODS FOR ESTABLISHING COMBINATIONS OF KINASE INHIBITORS FOR THE TREATMENT OF MEDICAL CONDITIONS” (SALGOMED, INC., priority 2014, published 2016)

test system: primary myoblasts; assay: Protection of primary myoblasts against 0.1% hypoxia (viability screen); format: cell-based; conditions: single-drug screening of EMD library
Excerpt: We used our method to predict synergistic effects between four kinase inhibitors: G13, O20, I15, and K10. […] Out of 244 drugs from the EMD library of kinase inhibitors, we first selected 58 drugs that have a positive effect on cell survivability against hypoxia. Single-drug screening results with these drugs were used as a training set to build a regression model that uses the kinase catalytic activity as predictor of the viability. The model assumed a dependence of the viability Vii of the form of Equation (V)

Compound	protection of primary myoblasts against hypoxia
COc1ccc2c(c1)/C(=C/c1cnc[nH]1)C(=O)N2 [O20, SU9516]	protect primary myoblasts against 0.1% hypoxia

test system: A549 (lung adenocarcinoma); assay: Kinase inhibitor screen, selectivity = IMR-90 to A549 viability ratio (ATPlite 1 Step); conditions: single drugs at 1000 nM, 72 hours, 244 KIs screened; FIG. 2
Method: Cell lines IMR-90 (normal lung fibroblast) and A549 (lung adenocarcinoma) were cultured in RPMI 1640 (Hyclone) supplemented with 10% Canadian characterized fetal bovine serum (Hyclone), 1% 200 mM L-glutamine (Omega), and 1% penicillin/streptomycin (Omega). The media for the cells were renewed every 3 days and kept at 80-90% confluency. Cells were maintained in a humidified environment at 37° C. and 5% CO2.
IMR-90 (1500 cells/well) and A549 (750 cells/well) were seeded on 384-well microplates (Grenier Bio-One) and incubated for 3 hours before the addition of kinase inhibitor(s). The reason that IMR-90 was seeded at double the cell density of A549 is due to the difference in cell division. IMR-90's doubling time is 36-48 hours whereas A549's is 22 hours. […] Furthermore, both A549's and IMR-90's final confluency at 72 hrs is 90-95% and within the range of the ATPlite 1 step assay. ECHO 555 Liquid Handler (Labcyte) was used to dispense nanoliter volumes of each KI to 384-well plates with cells attached (wet dispense). The final volume in the plate is 40 uL and cells were incubated for 72 hours with KI treatment.
ATPlite 1 Step (Perkin Elmer) was used to evaluate the cell number and cytotoxicity. ATP measurements were done by dispensing 20 uL of the ATPlite 1 Step solution to each well to a final volume of 60 uL. The plate was placed on a shaker at 1100 rpm and the luminescence activity was detected by Analyst GT Plate Reader. The percent (%) of control is the quantity of ATPlite 1 step measurement of the treated versus the untreated wells of each individual cell type.
The 244 kinase inhibitors (KIs) of the EMD drug library were screened at 1000 nM individually and the treatment lasted for 72 hours.
where vN indicates the viability of normal cells (IMR90) after treatment, and vc the viability of cancer cells (A549) after treatment. […] For the other 243 KIs we used the standard dose of 1000 nM.

Compound	selectivity rank in primary screen (IMR-90 to A549 viability ratio)
Nc1nc(Nc2ccc(S(N)(=O)=O)cc2)nn1C(=S)Nc1c(F)cccc1F [C16, Cdk1/2 In. III]	top ten most selective
Nc1cccc(-c2cc3c(Oc4cccc(O)c4)ncnc3[nH]2)c1 [M16, GSK3b In. XII, TWS119]	top ten most selective
CC(C)c1nn(-c2c(Cl)cccc2Cl)c2nc(Cc3ccc(OCCO)cc3)[nH]c(=O)c12 [E20, Cdk/Crk In.]	top ten most selective
Cc1cc(I)ccc1Nc1c(C(=O)NOCC2CC2)cc(F)c(F)c1F [H15, MEK1/2 In. II]	top ten most selective
Cc1ccc([N+](=O)[O-])cc1S(=O)(=O)N(C)/N=C/c1cnc2ccc(Br)cn12.Cl [L13, PI 3-Kα In. VIII]	top ten most selective
O=C1c2ccccc2-[n+]2ccc3c([nH]c4ccccc43)c21 [G10, Fascaplysin, Synthetic]	top ten most selective
COc1ccc2c(c1)/C(=C/c1cnc[nH]1)C(=O)N2 [O20, SU9516]	top ten most selective
c1nc2nc(Nc3ccc(N4CCOCC4)cc3)nc(NC3CCCCC3)c2[nH]1 [N05, Reversine]	top ten most selective
O=C1c2ccccc2-c2nc3nnnn3nc21 [A15, PDK1/Akt1/Flt3 Dual Pathway Inhibitor]	top ten most selective
NS(=O)(=O)c1ccc(N=Nc2c(O)[nH]c3ccc(Br)cc23)cc1 [D07, Cdk2 In. II]	top ten most selective

same assay, conditions: single drugs at 1000 nM, 72 hours, 244 KIs screened; FIG. 2; listed as PDK1/Akt1/Flt3 Dual Pathway Inhibitor

Compound	selectivity rank in primary screen (IMR-90 to A549 viability ratio)
O=C1c2ccccc2-c2nc3nnnn3nc21 [A15, PDK1/Akt1/Flt3 Dual Pathway Inhibitor]	top hit
